Measured values as given in patent publication US10047074B2, “Pharmaceutical compound” (IOmet Pharma Ltd., priority 2014, dated 2018).

Columns and labels:
TDO (A172) = biological target: T1, TDO (A172) (Homo sapiens, UniProt P48775); assay: A172 Kynurenine cell based assay; details: A172 human glioblastoma cells expressing TDO; kynurenine production, 48 hours
T1 construct: This assay utilised cancer cells which expressed either TDO (A172) or IDO (SKOV3); endogenous in cells; host or cells: A172 (human glioblastoma)
T1 sequence (P48775 whole entry): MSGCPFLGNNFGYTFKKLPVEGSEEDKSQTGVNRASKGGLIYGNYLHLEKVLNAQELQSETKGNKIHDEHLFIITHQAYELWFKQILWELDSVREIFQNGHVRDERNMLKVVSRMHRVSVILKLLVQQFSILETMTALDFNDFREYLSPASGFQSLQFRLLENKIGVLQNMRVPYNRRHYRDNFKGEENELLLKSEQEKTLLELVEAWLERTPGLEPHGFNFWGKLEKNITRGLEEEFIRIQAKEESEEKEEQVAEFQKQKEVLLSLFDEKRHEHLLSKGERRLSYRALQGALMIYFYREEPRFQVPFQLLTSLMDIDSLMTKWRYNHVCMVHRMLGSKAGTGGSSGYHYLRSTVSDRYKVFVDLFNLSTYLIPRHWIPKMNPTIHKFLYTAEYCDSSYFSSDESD
Method: (§1) Exemplary compounds of the invention were prepared, and tested to determine their effect as TDO and/or IDO inhibitors. Two different assays were employed: 1. a cell-based assay for detecting the effect of test compounds on kynurenine production in two different cancer cell types. This assay utilised cancer cells which expressed either TDO (A172) or IDO (SKOV3) and as such was used as a means of testing compound activity at these two enzymes in a cell-based context. 2. a TDO and IDO biochemical coupled assay which utilised recombinantly produced and purified TDO and IDO enzymes in combination with the enzyme formamidase. This coupled enzyme system allowed conversion of N-formylkynurenine produced by TDO or IDO activity to kynurenine which was then quantified by fluorescence following addition of Erhlich's Reagent The protocols for these are set out below.
(§2) Cell Based Assay for Detection of Kynurenine Produced by TDO and/or IDO
(§3) A172 (human glioblastoma) and SKOV3 (human ovarian adenocarcinoma) cells were seeded in a 96 well plate at 30,000 or 40,000 cells per well respectively in phenol red-free RPMI supplemented with 10% FCS, 2 mM L-glutamine and 500 µM L-tryptophan. IDO expression was induced in the SKOV3 cells by the addition of 500 ng/ml IFN-γ. Cells were incubated at 37° C. with or without the addition of test compound. After 48 hours, the cells were removed by centrifugation and Erhlich's reagent was added to the supernatant. The Erhlich's reagent was incubated for 5 minutes before the absorbance was read at 490 nm.

IDO (SKOV3) = biological target: T2, IDO (SKOV3) (Homo sapiens, UniProt P14902); assay: SKOV3 Kynurenine cell based assay; details: SKOV3 human ovarian adenocarcinoma cells, IDO induced by IFN-γ; kynurenine production, 48 hours
T2 construct: IDO expression was induced in the SKOV3 cells by the addition of 500 ng/ml IFN-γ; endogenous in cells; host or cells: SKOV3 (human ovarian adenocarcinoma), IFN-γ induced
T2 sequence (P14902 whole entry): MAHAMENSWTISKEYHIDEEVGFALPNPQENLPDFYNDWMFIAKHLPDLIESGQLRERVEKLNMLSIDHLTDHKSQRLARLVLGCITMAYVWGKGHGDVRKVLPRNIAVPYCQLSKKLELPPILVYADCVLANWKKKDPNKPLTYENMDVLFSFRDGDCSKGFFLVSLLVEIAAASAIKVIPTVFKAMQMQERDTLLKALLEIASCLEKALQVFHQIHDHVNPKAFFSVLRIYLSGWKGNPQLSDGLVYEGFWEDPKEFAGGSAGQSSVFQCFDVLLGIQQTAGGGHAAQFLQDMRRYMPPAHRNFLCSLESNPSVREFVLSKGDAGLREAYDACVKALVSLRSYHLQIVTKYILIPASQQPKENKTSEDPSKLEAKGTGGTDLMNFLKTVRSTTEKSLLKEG
Method: as §1, §2
as §3, with “supernatant.” for “supernatant. The Erhlich's reagent was incubated for 5 minutes before the absorbance was read at 490 nm.”

SMILES | A172 Kynurenine cell based assay pIC50 (TDO (A172)) | SKOV3 Kynurenine cell based assay pIC50 (IDO (SKOV3))
CN(C)C(=O)CNc1oncc1-c1ccccc1 [Compound 60] | ++ (++ = pIC50 4.50-5.49) | + (+ = pIC50 4.00-4.49)
Nc1oncc1-c1ccccc1[N+](=O)[O-] [Compound 67] | +/− (+/− = pIC50 < 4.00) | + (+ = pIC50 4.00-4.49)
Cc1noc(N)c1-c1ccc(Cl)cc1 [Compound 9] | ++ (++ = pIC50 4.50-5.49) | + (+ = pIC50 4.00-4.49)
CS(=O)(=O)NCCC(=O)Nc1oncc1-c1ccccc1 [Compound 48] | ++ (++ = pIC50 4.50-5.49) | +/− (+/− = pIC50 < 4.00)
O=C(Nc1cnoc1-c1ccccc1)c1ccccc1 [Compound 77] | +/− (+/− = pIC50 < 4.00) | + (+ = pIC50 4.00-4.49)
Cc1noc(N)c1-c1ccccc1 [Compound 10] | ++ (++ = pIC50 4.50-5.49) | + (+ = pIC50 4.00-4.49)
CNCC(=O)Nc1oncc1-c1ccccc1 [Compound 71] | ++ (++ = pIC50 4.50-5.49) | + (+ = pIC50 4.00-4.49)
CN1CCC(C(=O)Nc2oncc2-c2ccccc2)CC1 [Compound 36] | ++ (++ = pIC50 4.50-5.49) | + (+ = pIC50 4.00-4.49)
O=C(Nc1oncc1-c1ccccc1)c1ccncc1 [Compound 39] | + (+ = pIC50 4.00-4.49) | ++ (++ = pIC50 4.50-5.49)
Nc1oncc1-c1cccnc1 [Compound 16] | ++ (++ = pIC50 4.50-5.49) | ++ (++ = pIC50 4.50-5.49)
CN(C)C(=O)CCC(=O)Nc1oncc1-c1ccccc1 [Compound 58] | ++ (++ = pIC50 4.50-5.49) | + (+ = pIC50 4.00-4.49)
Nc1oncc1-c1ccccc1Cl [Compound 15] | + (+ = pIC50 4.00-4.49) | ++ (++ = pIC50 4.50-5.49)
O=C(Nc1oncc1-c1ccccc1)C1CC1 [Compound 27] | ++ (++ = pIC50 4.50-5.49) | ++ (++ = pIC50 4.50-5.49)
CNC(=O)CCC(=O)Nc1oncc1-c1ccccc1 [Compound 65] | +++ (+++ = pIC50 ≥ 5.50) | ++ (++ = pIC50 4.50-5.49)
O=C(Nc1oncc1-c1ccccc1)C(O)C1CCCCC1 (stereo not shown) [Compound 74] | + (+ = pIC50 4.00-4.49) | + (+ = pIC50 4.00-4.49)
O=C(O)CCC(=O)Nc1oncc1-c1ccccc1 [Compound 33] | + (+ = pIC50 4.00-4.49) | +/− (+/− = pIC50 < 4.00)
OCCCNc1oncc1-c1ccccc1 [Compound 42] | +++ (+++ = pIC50 ≥ 5.50) | + (+ = pIC50 4.00-4.49)
O=S(=O)(Nc1oncc1-c1ccccc1)c1cccnc1 [Compound 59] | +/− (+/− = pIC50 < 4.00) | + (+ = pIC50 4.00-4.49)
CN1CCCCC1C(=O)Nc1oncc1-c1ccccc1 (stereo not shown) [Compound 61] | + (+ = pIC50 4.00-4.49) | +/− (+/− = pIC50 < 4.00)
O=S(=O)(Nc1cncn1-c1ccccc1)c1ccccc1 [Compound 79] | +/− (+/− = pIC50 < 4.00) | ++ (++ = pIC50 4.50-5.49)
O=C(Nc1oncc1-c1ccccc1)c1ccccn1 [Compound 40] | +++ (+++ = pIC50 ≥ 5.50) | ++ (++ = pIC50 4.50-5.49)
COc1ccccc1-c1cnoc1-c1ccccc1 [Compound 51] | ++ (++ = pIC50 4.50-5.49) | ++ (++ = pIC50 4.50-5.49)
O=S(=O)(CC1CCOCC1)Nc1oncc1-c1ccccc1 [Compound 32] | +/− (+/− = pIC50 < 4.00) | + (+ = pIC50 4.00-4.49)
O=S(=O)(Nc1cnoc1-c1ccccc1)c1cc(Cl)ccc1Cl [Compound 54] | + (+ = pIC50 4.00-4.49) | ++ (++ = pIC50 4.50-5.49)
COCC(=O)Nc1oncc1-c1ccccc1 [Compound 25] | +++ (+++ = pIC50 ≥ 5.50) | ++ (++ = pIC50 4.50-5.49)
CCOC(=O)C(=O)Nc1oncc1-c1ccccc1 [Compound 45] | +++ (+++ = pIC50 ≥ 5.50) | + (+ = pIC50 4.00-4.49)
Nc1oncc1-c1ccc(F)cc1F [Compound 14] | ++ (++ = pIC50 4.50-5.49) | ++ (++ = pIC50 4.50-5.49)

More lines, now with the values ahead:

A172 Kynurenine cell based assay pIC50 (TDO (A172)) | SKOV3 Kynurenine cell based assay pIC50 (IDO (SKOV3)) | SMILES
++ (++ = pIC50 4.50-5.49) | ++ (++ = pIC50 4.50-5.49) | O=C(Nc1oncc1-c1ccccc1)c1ccccc1 [Compound 18]
++ (++ = pIC50 4.50-5.49) | + (+ = pIC50 4.00-4.49) | CC(=O)N1CCC(C(=O)Nc2oncc2-c2ccccc2)CC1 [Compound 35]
++ (++ = pIC50 4.50-5.49) | + (+ = pIC50 4.00-4.49) | Nc1oncc1-c1ccccc1O [Compound 68]
++ (++ = pIC50 4.50-5.49) | +/− (+/− = pIC50 < 4.00) | Oc1oncc1-c1ccccc1 [Compound 23]
+++ (+++ = pIC50 ≥ 5.50) | + (+ = pIC50 4.00-4.49) | CN(C)CCC(=O)Nc1oncc1-c1ccccc1 [Compound 69]
++ (++ = pIC50 4.50-5.49) | + (+ = pIC50 4.00-4.49) | Nc1oncc1-c1ccccc1CCO [Compound 78]
++ (++ = pIC50 4.50-5.49) | ++ (++ = pIC50 4.50-5.49) | O=C(CC1CCCCC1)Nc1oncc1-c1ccccc1 [Compound 24]
++ (++ = pIC50 4.50-5.49) | + (+ = pIC50 4.00-4.49) | O=C(Nc1oncc1-c1ccccc1)C(O)c1ccccc1 (stereo not shown) [Compound 76]
+++ (+++ = pIC50 ≥ 5.50) | + (+ = pIC50 4.00-4.49) | NCCNc1oncc1-c1ccccc1 [Compound 82]
+++ (+++ = pIC50 ≥ 5.50) | ++ (++ = pIC50 4.50-5.49) | OCCNc1oncc1-c1ccccc1 [Compound 57]
+++ (+++ = pIC50 ≥ 5.50) | ++ (++ = pIC50 4.50-5.49) | Nc1oncc1-c1ccc(F)c(F)c1 [Compound 12]
+ (+ = pIC50 4.00-4.49) | ++ (++ = pIC50 4.50-5.49) | O=C(Cc1ccccc1)Nc1oncc1-c1ccccc1 [Compound 19]
++ (++ = pIC50 4.50-5.49) | ++ (++ = pIC50 4.50-5.49) | COc1ccc(-c2cnoc2N)cc1 [Compound 4]
+++ (+++ = pIC50 ≥ 5.50) | ++ (++ = pIC50 4.50-5.49) | Nc1oncc1-c1ccc(Cl)cc1 [Compound 2]
++ (++ = pIC50 4.50-5.49) | ++ (++ = pIC50 4.50-5.49) | O=C(Nc1oncc1-c1ccccc1)c1cccnc1 [Compound 62]
++ (++ = pIC50 4.50-5.49) | +/− (+/− = pIC50 < 4.00) | Cc1noc(N)c1-c1ccc(F)cc1 [Compound 6]
+/− (+/− = pIC50 < 4.00) | + (+ = pIC50 4.00-4.49) | CC(C)CS(=O)(=O)Nc1cncn1-c1ccccc1 [Compound 72]
++ (++ = pIC50 4.50-5.49) | + (+ = pIC50 4.00-4.49) | CC(C)(O)C(=O)Nc1oncc1-c1ccccc1 [Compound 64]
++ (++ = pIC50 4.50-5.49) | ++ (++ = pIC50 4.50-5.49) | O=C(Nc1nnnn1-c1ccccc1)c1ccccc1 [Compound 70]
++ (++ = pIC50 4.50-5.49) | + (+ = pIC50 4.00-4.49) | CC(C)S(=O)(=O)Nc1oncc1-c1ccccc1 [Compound 30]
